The values that follow come from patent publication US9193720B2, “Pyridin-3-yl acetic acid derivatives as inhibitors of human immunodeficiency virus replication” (priority 2014, dated 2015).

In this experiment the test system is NL-RLuc virus. Briefly: Inhibition of HIV Replication (NL-RLuc luciferase reporter virus in MT-2 cells). Type of experiment: cell-based. Particulars: Human immunodeficiency virus 1, MT2, 120 h. The essentials: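 Replication-competent virus with Renilla luciferase in place of part of nef, made in 293T cells and titered in MT-2 cells. Infected MT-2 cells grown 5 days with serially diluted compound in RPMI 1640/10% FBS, 10 mM HEPES pH 7.55. Luciferase read-out; EC50 from median effect equation, at least 2 experiments.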
On the technique in general: In a reporter assay the amount or activity of a reporter protein is the signal.

For orientation: EC50 means the concentration needed to bring the measured effect to its halfway point. Lower therefore signals a more potent agent. On to `Cc1nc(C)c([C@H](OC(C)(C)C)C(=O)O)c(N2CCC(C)(C)CC2)c1-c1ccc(OCC(C)(C)c2ccc(F)cc2)cc1` [Example 49, (S)-2-(tert-butoxy)-2-(4-(4,4-dimethylpiperidin-1-yl)-5-(4-(2-(4-fluorophenyl)-2-methylpropoxy)phenyl)-2,6-dimethylpyridin-3-yl)acetic acid], for which the EC50 stood at 34 nM.

`COc1cccc(-c2c(C)nc(C)c([C@H](OC(C)(C)C)C(=O)O)c2N2CCC(C)(C)CC2)c1` [Example 62, (S)-2-(tert-butoxy)-2-(4-(4,4-dimethylpiperidin-1-yl)-5-(3-methoxyphenyl)-2,6-dimethylpyridin-3-yl)acetic acid]: the midpoint of the response, the EC50, lay at 166 nM.

In turn, `CCCOc1c(C)cc(-c2c(C)nc(C)c([C@H](OC(C)(C)C)C(=O)O)c2N2CCC(C)(C)CC2)cc1C` [Example 64, (S)-2-(tert-butoxy)-2-(5-(3,5-dimethyl-4-propoxyphenyl)-4-(4,4-dimethylpiperidin-1-yl)-2,6-dimethylpyridin-3-yl)acetic acid] displayed an EC50 of 26 nM.

As for `Cc1nc(C)c([C@H](OC(C)(C)C)C(=O)O)c(N2CCC(C)(C)CC2)c1-c1ccc(OCCc2cc(F)c(F)cc2F)cc1` [Example 50, (S)-2-(tert-butoxy)-2-(4-(4,4-dimethylpiperidin-1-yl)-2,6-dimethyl-5-(4-(2,4,5-trifluorophenethoxy)phenyl)pyridin-3-yl)acetic acid], the response was half-maximal at 3 nM (EC50).

For `Cc1nc(C)c([C@H](OC(C)(C)C)C(=O)O)c(N2CCC(C)(C)CC2)c1-c1ccc(OCc2ccc(C(N)=O)cc2)cc1` [Example 19, (S)-2-(tert-Butoxy)-2-(5-(4-((4-carbamoylbenzyl)oxy)phenyl)-4-(4,4-dimethylpiperidin-1-yl)-2,6-dimethylpyridin-3-yl)acetic acid], the EC50 amounted to 12 nM.

On to `Cc1nc(C)c([C@H](OC(C)(C)C)C(=O)O)c(N2CCC(C)(C)CC2)c1-c1ccc(OCC(C)(C)c2ccc(Cl)cc2)cc1` [Example 29, (S)-2-(tert-butoxy)-2-(5-(4-(2-(4-chlorophenyl)-2-methylpropoxy)phenyl)-4-(4,4-dimethylpiperidin-1-yl)-2,6-dimethylpyridin-3-yl)acetic acid], for which the EC50 worked out at 15 nM.

In turn, `Cc1nc(C)c([C@H](OC(C)(C)C)C(=O)O)c(N2CCC(C)(C)CC2)c1-c1ccc(OC(C)Cc2ccc(F)cc2)cc1` (stereo partly drawn) [Example 22, (2S)-2-(tert-Butoxy)-2-(4-(4,4-dimethylpiperidin-1-yl)-5-(4-((1-(4-fluorophenyl)propan-2-yl)oxy)phenyl)-2,6-dimethylpyridin-3-yl)acetic acid] displayed an EC50 of 7 nM.

Molecule `Cc1nc(C)c([C@H](OC(C)(C)C)C(=O)O)c(N2CCC(C)(C)CC2)c1-c1ccc(OCCc2ccc(F)cc2)cc1` [Example 11, (S)-2-(tert-butoxy)-2-(4-(4,4-dimethylpiperidin-1-yl)-5-(4-(4-fluorophenethoxy)phenyl)-2,6-dimethylpyridin-3-yl)acetic acid] registered a concentration for a half-maximal effect (EC50) of 4 nM.

For the molecule `Cc1nc(C)c([C@H](OC(C)(C)C)C(=O)O)c(N2CCC(c3ccccc3)CC2)c1-c1ccc(OCCc2ccc(F)cc2)cc1` [Example 72, (S)-2-(tert-butoxy)-2-(5-(4-(4-fluorophenethoxy)phenyl)-2,6-dimethyl-4-(4-phenylpiperidin-1-yl)pyridin-3-yl)acetic acid], the half-maximal effective concentration (EC50) is 744 nM.

In turn, `COc1cc(-c2c(C)nc(C)c([C@H](OC(C)(C)C)C(=O)O)c2N2CCC(C)(C)CC2)ccc1C` [Example 61, (S)-2-(tert-butoxy)-2-(4-(4,4-dimethylpiperidin-1-yl)-5-(3-methoxy-4-methylphenyl)-2,6-dimethylpyridin-3-yl)acetic acid] registered an EC50 of 44 nM.

Regarding `Cc1nc(C)c([C@H](OC(C)(C)C)C(=O)O)c(N2CCC(C(F)(F)F)CC2)c1-c1ccc(OCCc2ccc(F)cc2)cc1` [Example 74, (S)-2-(tert-butoxy)-2-(5-(4-(4-fluorophenethoxy)phenyl)-2,6-dimethyl-4-(4-(trifluoromethyl)piperidin-1-yl)pyridin-3-yl)acetic acid], a half-maximal effect (EC50) was put at 379 nM.

`CO[C@@H](COc1ccc(-c2c(C)nc(C)c([C@H](OC(C)(C)C)C(=O)O)c2N2CCC(C)(C)CC2)cc1)c1ccccc1` [Example 35, (S)-2-(tert-butoxy)-2-(4-(4,4-dimethylpiperidin-1-yl)-5-(4-((R)-2-methoxy-2-phenylethoxy)phenyl)-2,6-dimethylpyridin-3-yl)acetic acid] gave an EC50 of 13 nM.

The molecule `Cc1nc(C)c([C@H](OC(C)(C)C)C(=O)O)c(N2CCC(C)(C)CC2)c1-c1ccc(OCCc2cccnc2)cc1` [Example 41, (S)-2-(tert-butoxy)-2-(4-(4,4-dimethylpiperidin-1-yl)-2,6-dimethyl-5-(4-(2-(pyridin-3-yl)ethoxy)phenyl)pyridin-3-yl)acetic acid] showed an EC50 of 1 nM.

Consider `COc1ccccc1COc1ccc(-c2c(C)nc(C)c([C@H](OC(C)(C)C)C(=O)O)c2N2CCC(C)(C)CC2)cc1` [Example 6, (S)-2-(tert-butoxy)-2-(4-(4,4-dimethylpiperidin-1-yl)-5-(4-((2-methoxybenzyl)oxy)phenyl)-2,6-dimethylpyridin-3-yl)acetic acid], for which a half-maximal response (EC50) required 20 nM.

Consider `COc1cc(-c2c(C)nc(C)c([C@H](OC(C)(C)C)C(=O)O)c2N2CCC(C)(C)CC2)ccc1F` [Example 66, (S)-2-(tert-butoxy)-2-(4-(4,4-dimethylpiperidin-1-yl)-5-(4-fluoro-3-methoxyphenyl)-2,6-dimethylpyridin-3-yl)acetic acid], for which it took 141 nM to reach a half-maximal effect (EC50).

`Cc1nc(C)c([C@H](OC(C)(C)C)C(=O)O)c(N2CCC(C)(C)CC2)c1-c1ccc(OCc2ccc(F)cc2)cc1` [Example 2, (S)-2-(tert-butoxy)-2-(4-(4,4-dimethylpiperidin-1-yl)-5-(4-((4-fluorobenzyl)oxy)phenyl)-2,6-dimethylpyridin-3-yl)acetic acid] showed an EC50 of 12 nM.

With `CO[C@H](COc1ccc(-c2c(C)nc(C)c([C@H](OC(C)(C)C)C(=O)O)c2N2CCC(C)(C)CC2)cc1)c1ccccc1` [Example 34, (S)-2-(tert-butoxy)-2-(4-(4,4-dimethylpiperidin-1-yl)-5-(4-((S)-2-methoxy-2-phenylethoxy)phenyl)-2,6-dimethylpyridin-3-yl)acetic acid], the EC50 stood at 11 nM.

As to `Cc1nc(C)c([C@H](OC(C)(C)C)C(=O)O)c(N2CCC(C)(C)CC2)c1-c1ccc(OCCc2ccccn2)cc1` [Example 33, (S)-2-(tert-butoxy)-2-(4-(4,4-dimethylpiperidin-1-yl)-2,6-dimethyl-5-(4-(2-(pyridin-2-yl)ethoxy)phenyl)pyridin-3-yl)acetic acid], a half-maximal effect (EC50) was put at 1 nM.

In the case of `Cc1nc(C)c([C@H](OC(C)(C)C)C(=O)O)c(N2CCC(C)(C)CC2)c1-c1ccc(OCc2cncs2)cc1` [Example 43, (S)-2-(tert-butoxy)-2-(4-(4,4-dimethylpiperidin-1-yl)-2,6-dimethyl-5-(4-(thiazol-5-ylmethoxy)phenyl)pyridin-3-yl)acetic acid], the EC50 was 14 nM.

The molecule `COc1cccc(CCOc2ccc(-c3c(C)nc(C)c([C@H](OC(C)(C)C)C(=O)O)c3N3CCC(C)(C)CC3)cc2)c1` [Example 36, (S)-2-(tert-butoxy)-2-(4-(4,4-dimethylpiperidin-1-yl)-5-(4-(3-methoxyphenethoxy)phenyl)-2,6-dimethylpyridin-3-yl)acetic acid] yielded an EC50 of 2 nM.

Molecule `Cc1nc(C)c([C@H](OC(C)(C)C)C(=O)O)c(N2CCC(C)(C)CC2)c1-c1ccc(OCCc2ccc(F)cc2)nc1` [Example 67, (S)-2-(tert-butoxy)-2-(4-(4,4-dimethylpiperidin-1-yl)-6′-(4-fluorophenethoxy)-2,6-dimethyl-[3,3′-bipyridin]-5-yl)acetic acid] had an EC50 of 7 nM.

As for `Cc1nc(C)c([C@H](OC(C)(C)C)C(=O)O)c(N2CCC(C)(C)CC2)c1-c1ccc(OCCc2ccc(OCc3ccccc3)cc2)cc1` [Example 31, (S)-2-(5-(4-(4-(benzyloxy)phenethoxy)phenyl)-4-(4,4-dimethylpiperidin-1-yl)-2,6-dimethylpyridin-3-yl)-2-(tert-butoxy)acetic acid], the EC50 was 47 nM.

Regarding `Cc1nc(C)c([C@H](OC(C)(C)C)C(=O)O)c(N2CCC(C)CC2)c1-c1ccc(OCCc2ccc(F)cc2)cc1` [Example 76, (S)-2-(tert-butoxy)-2-(5-(4-(4-fluorophenethoxy)phenyl)-2,6-dimethyl-4-(4-methylpiperidin-1-yl)pyridin-3-yl)acetic acid], a half-maximal effect (EC50) was put at 17 nM.

For the molecule `Cc1nc(C)c([C@H](OC(C)(C)C)C(=O)O)c(N2CCC(C)(C)CC2)c1-c1cnc(OCCc2ccc(F)cc2)nc1` [Example 58, (S)-2-(tert-butoxy)-2-(4-(4,4-dimethylpiperidin-1-yl)-5-(2-(4-fluoro-phenethoxy)pyrimidin-5-yl)-2,6-dimethylpyridin-3-yl)acetic acid], the EC50 came to 9 nM.

With `Cc1nc(C)c([C@H](OC(C)(C)C)C(=O)O)c(N2CC(C)CC(C)C2)c1-c1ccc(OCCc2ccc(F)cc2)cc1` (stereo partly shown) [Example 82], the EC50 is 5430 nM.

Regarding `Cc1nc(C)c([C@H](OC(C)(C)C)C(=O)O)c(N2CCC(C)(C)CC2)c1-c1ccc(OCCc2ccc(C(N)=O)cc2)cc1` [Example 17, (S)-2-(tert-Butoxy)-2-(5-(4-(4-carbamoylphenethoxy)phenyl)-4-(4,4-dimethylpiperidin-1-yl)-2,6-dimethylpyridin-3-yl)acetic acid], the EC50 stood at 4 nM.

The molecule `Cc1nc(C)c([C@H](OC(C)(C)C)C(=O)O)c(N2CCC(C)(C)CC2)c1-c1ccc(OCCc2ccc(Cl)c(F)c2)cc1` [Example 27, (S)-2-(tert-butoxy)-2-(5-(4-(4-chloro-3-fluorophenethoxy)phenyl)-4-(4,4-dimethylpiperidin-1-yl)-2,6-dimethylpyridin-3-yl)acetic acid] registered an EC50 of 12 nM.

For the molecule `Cc1nc(C)c([C@H](OC(C)(C)C)C(=O)O)c(N2CC(C)(C)C2)c1-c1ccc(OCCc2ccc(F)cc2)cc1` [Example 70, (S)-2-(tert-butoxy)-2-(4-(3,3-dimethylazetidin-1-yl)-5-(4-(4-fluorophenethoxy)phenyl)-2,6-dimethylpyridin-3-yl)acetic acid], the response was half-maximal at 3050 nM (EC50).
